“And” between values parts separate entries of the source, which are not always exact repeats. Identical values can stand only once. Inconclusive results and toxic doses are left out. No stated cut-off is given here; in the data, active means T/C of 150% or more; inactive means T/C below 125%.
Tested on: L1210 leukemia ip in BDF1 mice, survival T/C
Experiment: NCI In Vivo Anticancer Drug Screen. Data for tumor model L1210 Leukemia (intraperitoneal) in B6D2F1 (BDF1) mice
Details: endpoint: mean survival time, higher = longer survival
How it was run: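 Transplantable tumor model; survival measured in treated vs vehicle control mice. Value = treated/control.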

[1] = dose: 75.0 mg/kg/injection, schedule: Q01DX001 (ip), vehicle: saline
[2] = dose: 150.0 mg/kg/injection, schedule: Q01DX001 (ip), vehicle: saline
[3] = dose: 300.0 mg/kg/injection, schedule: Q01DX001 (ip), vehicle: saline
[4] = dose: 100.0 mg/kg/injection, schedule: Q04DX002 (ip), vehicle: saline
[5] = dose: 200.0 mg/kg/injection, schedule: Q04DX002 (ip), vehicle: saline
[6] = dose: 400.0 mg/kg/injection, schedule: Q04DX002 (ip), vehicle: saline
[7] = dose: 100.0 mg/kg/injection, schedule: Q01DX009 (ip), vehicle: saline with Tween-80
[8] = dose: 100.0 mg/kg/injection, schedule: Q04DX003 (ip), vehicle: saline with Tween-80
[9] = dose: 200.0 mg/kg/injection, schedule: Q01DX009 (ip), vehicle: saline with Tween-80
[10] = dose: 400.0 mg/kg/injection, schedule: Q01DX009 (ip), vehicle: saline with Tween-80
[11] = dose: 400.0 mg/kg/injection, schedule: Q04DX003 (ip), vehicle: saline with Tween-80
[12] = dose: 100.0 mg/kg/injection, schedule: Q01DX001 (ip), vehicle: saline
[13] = dose: 200.0 mg/kg/injection, schedule: Q01DX001 (ip), vehicle: saline
[14] = dose: 400.0 mg/kg/injection, schedule: Q01DX001 (ip), vehicle: saline
[15] = dose: 100.0 mg/kg/injection, schedule: Q01DX009 (ip), vehicle: saline
[16] = dose: 100.0 mg/kg/injection, schedule: Q01DX009 (ip), vehicle: Klucel (hydroxypropylcellulose) (HPC)
[17] = dose: 100.0 mg/kg/injection, schedule: Q04DX002 (ip), vehicle: Klucel (hydroxypropylcellulose) (HPC)
[18] = dose: 200.0 mg/kg/injection, schedule: Q01DX009 (ip), vehicle: Klucel (hydroxypropylcellulose) (HPC)
[19] = dose: 400.0 mg/kg/injection, schedule: Q01DX009 (ip), vehicle: Klucel (hydroxypropylcellulose) (HPC)
[20] = dose: 100.0 mg/kg/injection, schedule: Q01DX001 (ip), vehicle: carboxymethylcellulose (CMC)
[21] = dose: 200.0 mg/kg/injection, schedule: Q01DX001 (ip), vehicle: carboxymethylcellulose (CMC)
[22] = dose: 400.0 mg/kg/injection, schedule: Q01DX001 (ip), vehicle: carboxymethylcellulose (CMC)
[23] = dose: 100.0 mg/kg/injection, schedule: Q04DX003 (ip), vehicle: Klucel (hydroxypropylcellulose) (HPC)
[24] = dose: 200.0 mg/kg/injection, schedule: Q04DX003 (ip), vehicle: Klucel (hydroxypropylcellulose) (HPC)
[25] = dose: 400.0 mg/kg/injection, schedule: Q04DX003 (ip), vehicle: Klucel (hydroxypropylcellulose) (HPC)
[26] = dose: 200.0 mg/kg/injection, schedule: Q04DX003 (ip), vehicle: saline with Tween-80

Measured: T/C

C=CCCC1(CCC)C(=O)NC(=O)NC1=O
inactive: [1] 103 % of control | [2] 113 % of control | [3] 101 % of control

COc1ccc2c(O)c(Cl)c(=O)oc2c1
inactive: dose: 100.0 mg/kg/injection, schedule: Q04DX003 (ip), vehicle: saline 91 % of control | dose: 200.0 mg/kg/injection, schedule: Q04DX003 (ip), vehicle: saline 91 % of control | dose: 400.0 mg/kg/injection, schedule: Q04DX003 (ip), vehicle: saline 94 % of control

Nc1ccc(CC(=O)NC(CCC(=O)O)C(=O)O)cc1 (configuration not stated)
inactive: [4] 103 % of control | [5] 91 % of control | [6] 100 % of control

CCCCN(C)N=Nc1cn(C2OC(CO)C(O)C2O)c(=O)n(C)c1=O (configuration not stated)
inactive: dose: 100.0 mg/kg/injection, schedule: Q01DX005 (ip), vehicle: saline 119 % of control

CCN(C(=O)c1ccc([N+](=O)[O-])cc1)C(c1ccco1)P(=O)(c1ccccc1)c1ccccc1 (configuration not stated)
inactive: dose: 100.0 mg/kg/injection, schedule: Q04DX002 (ip), vehicle: saline with Tween-80 87 % of control | dose: 200.0 mg/kg/injection, schedule: Q04DX002 (ip), vehicle: saline with Tween-80 87 % of control | dose: 400.0 mg/kg/injection, schedule: Q04DX002 (ip), vehicle: saline with Tween-80 93 % of control

Cc1ccc(C)c(NC(=O)NCc2ccc(Cl)cc2)c1
inactive: [7] 87 % of control | [8] 93 % of control | [9] 89 % of control | [10] 93 % of control | [11] 100 % of control

COc1cc([N+](=O)[O-])cc(OC)c1OC
inactive: dose: 100.0 mg/kg/injection, schedule: Q01DX001 (ip), vehicle: Klucel (hydroxypropylcellulose) (HPC) 95 % of control | dose: 200.0 mg/kg/injection, schedule: Q01DX001 (ip), vehicle: Klucel (hydroxypropylcellulose) (HPC) 92 % of control | dose: 400.0 mg/kg/injection, schedule: Q01DX001 (ip), vehicle: Klucel (hydroxypropylcellulose) (HPC) 97 % of control

C=CN1CCCC1=O (tested in a mixture with another compound)
inactive: [12] 101 % of control [middle of 4 runs] | [7] 92 % of control and 97 % of control | [13] 101 % of control [middle of 4 runs] | [9] 93 % of control and 100 % of control | [14] 101 % of control and 89 % of control and 98 % of control | [10] 93 % of control and 96 % of control

BrCC[CH2][Sn]([Br])([Br])[Br]
inactive: dose: 50.0 mg/kg/injection, schedule: Q01DX009 (ip), vehicle: saline 107 % of control | [15] 103 % of control

COc1ccc(OCCO)cc1
inactive: [16] 95 % of control | [17] 96 % of control | [18] 98 % of control | dose: 200.0 mg/kg/injection, schedule: Q04DX002 (ip), vehicle: Klucel (hydroxypropylcellulose) (HPC) 93 % of control | [19] 103 % of control | dose: 400.0 mg/kg/injection, schedule: Q04DX002 (ip), vehicle: Klucel (hydroxypropylcellulose) (HPC) 100 % of control

CCOC(=O)CC(CC(=O)OCC)NC(=O)c1ccc(N(C)C(=O)OCc2ccccc2)cc1
inactive: [20] 97 % of control | [21] 100 % of control | [22] 105 % of control

[Cl][Hg][Cl].c1cnccn1
inactive: dose: 1.0 mg/kg/injection, schedule: Q01DX009 (ip), vehicle: saline with Tween-80 105 % of control | dose: 2.0 mg/kg/injection, schedule: Q01DX009 (ip), vehicle: saline with Tween-80 93 % of control | dose: 4.0 mg/kg/injection, schedule: Q01DX009 (ip), vehicle: saline with Tween-80 105 % of control | dose: 8.0 mg/kg/injection, schedule: Q04DX003 (ip), vehicle: saline with Tween-80 88 % of control

Cc1ccc(S(=O)(=O)N(C)c2ccc3cc(C(=O)O)ccc3c2)cc1
inactive: [16] 94 % of control | [23] 102 % of control | [18] 95 % of control | [24] 106 % of control | [19] 94 % of control | [25] 90 % of control

O=C(O)C1=CC2C3C=CC(C(=O)O)(C3)C2C1 (configuration not stated)
inactive: [7] 96 % of control | [8] 101 % of control | [9] 96 % of control | [26] 102 % of control | [10] 94 % of control | [11] 98 % of control

CCOP1(=O)OCC(C)(C)CO1
inactive: [12] 98 % of control | [13] 96 % of control | [14] 102 % of control

CCC(C)C(CCN(C)C)(CNC(=O)CN(CC)CC)c1cccc2ccccc12 (configuration not stated)
inactive: [15] 96 % of control | dose: 200.0 mg/kg/injection, schedule: Q01DX009 (ip), vehicle: saline 91 % of control

O=C(NCCO)Nc1cccc(Cl)c1
inactive: [4] 100 % of control | [5] 100 % of control | [6] 111 % of control

CN(CCO)C(=O)c1ccc([N+](=O)[O-])cc1
inactive: [23] 91 % of control | [24] 88 % of control | [25] 107 % of control

O=c1[nH]cc(Br)c2sccc12
inactive: [8] 100 % of control | [26] 105 % of control

Cc1cc(C(=O)O)cc(C)c1NC(=O)N(CCCl)N=O
inactive: dose: 46.0 mg/kg/injection, schedule: Q01DX001 (ip), vehicle: other 91 % of control | dose: 62.0 mg/kg/injection, schedule: Q01DX001 (ip), vehicle: other 90 % of control

Cc1ccc(C(=O)CCC(=O)O)c(C)c1
inactive: [8] 100 % of control | [26] 98 % of control | [11] 98 % of control

CCN(CC)CCOCCOC(=O)C(CC)(CC)c1cccc2ccccc12
inactive: dose: 25.0 mg/kg/injection, schedule: Q04DX002 (ip), vehicle: Klucel (hydroxypropylcellulose) (HPC) 93 % of control | dose: 50.0 mg/kg/injection, schedule: Q04DX002 (ip), vehicle: Klucel (hydroxypropylcellulose) (HPC) 97 % of control | [17] 93 % of control

O=C(Oc1ccc([N+](=O)[O-])cc1)c1cccc(S(=O)(=O)F)c1
inactive: [20] 93 % of control and 102 % of control | dose: 100.0 mg/kg/injection, schedule: Q01DX009 (ip), vehicle: carboxymethylcellulose (CMC) 103 % of control and 110 % of control | dose: 100.0 mg/kg/injection, schedule: Q04DX003 (ip), vehicle: carboxymethylcellulose (CMC) 104 % of control | [21] 98 % of control and 101 % of control | dose: 200.0 mg/kg/injection, schedule: Q01DX009 (ip), vehicle: carboxymethylcellulose (CMC) 92 % of control and 94 % of control | dose: 200.0 mg/kg/injection, schedule: Q04DX003 (ip), vehicle: carboxymethylcellulose (CMC) 102 % of control and 90 % of control | [22] 98 % of control and 101 % of control | dose: 400.0 mg/kg/injection, schedule: Q01DX009 (ip), vehicle: carboxymethylcellulose (CMC) 92 % of control | dose: 400.0 mg/kg/injection, schedule: Q04DX003 (ip), vehicle: carboxymethylcellulose (CMC) 96 % of control and 90 % of control

O=C1CC2C(=O)C1C(C(=O)O)C2C(=O)O (configuration not stated)
inactive: [1] 112 % of control | [2] 102 % of control | [3] 95 % of control

From PubChem BioAssay AID248 (DTP/NCI, 2004)
